{"source": "paper PMC6801739", "about": "“Antitumor Activity of a Novel Tyrosine Kinase Inhibitor AIU2001 Due to Abrogation of the DNA Damage Repair in Non-Small Cell Lung Cancer Cells” (International Journal of Molecular Sciences, 2019)", "key": {"ROCK-I": {"biological_target": "T1, ROCK-I (Homo sapiens, UniProt Q13464)", "T1 construct": "purchased Eurofins Pharma Discovery (KinaseProfiler); IC50 values by Reaction Biology Corp", "experiment": "Kinase profiling at 10 μM (Eurofins)", "type": "biochemical", "settings": "read-out: Inhibitory activity"}, "H460 cells": {"tested_on": "H460 cells", "experiment": "MTT cell viability assay", "type": "cell-based, human", "settings": "five days", "protocol": "(§1) Cell viability was assessed using the MTT colorimetric assay. Cells (1 × 10^3 cells/well) were seeded into 96-well plates and treated with the various concentrations of each compound or combination of two compounds. After five days of treatment, 10 μL MTT (0.5 mg/mL) was added, and further incubated for 3 h. After removal of the supernatant, the resultant pellet was dissolved in DMSO. The absorbance of the resultant formazan was measured at 540 nm using a plate reader (Multiskan EX; ThermoLabsystems, Waltham, MA, USA)."}, "CCD18-Lu cells": {"tested_on": "CCD18-Lu cells", "experiment": "MTT cell viability assay", "type": "cell-based, human", "settings": "CCD18-Lu lung fibroblast cells, five days", "protocol": "as §1"}, "BEAS2B cells": {"tested_on": "BEAS2B cells", "experiment": "MTT cell viability assay", "type": "cell-based, human", "settings": "BEAS2B normal bronchial epithelial cells, five days", "protocol": "as §1"}, "FLT3 (ITD)": {"biological_target": "FLT3 (ITD) (Homo sapiens, UniProt P36888, ITD)", "experiment": "In vitro kinase assay, IC50 (Reaction Biology Corp.)", "type": "biochemical"}, "FLT3 [1]": {"biological_target": "T2, FLT3 (Homo sapiens, UniProt P36888)", "T2 construct": "purchased Eurofins Pharma Discovery (KinaseProfiler); IC50 values by Reaction Biology Corp", "experiment": "In vitro kinase assay, IC50 (Reaction Biology Corp.)", "type": "biochemical"}, "HCT116 p53-/- cells": {"tested_on": "HCT116 p53-/- cells", "experiment": "MTT cell viability assay", "type": "cell-based, human", "settings": "5 days", "protocol": "as §1\n(§2) Supplementary Figure 1. AIU2001 inhibited the proliferation of various cancer cells. (A and B)\n(§3) Human AML cells (Molm-13 and MV4-11; A) and human colorectal cancer (CRC) cells\n(§4) (HCT116/p53+/+ and HCT116/p53-/-; B) were treated with AIU2001 at the indicated concentrations for\n(§5) 5 days and viable cells were evaluated using the CCK-8 assay for AML cells and the MTT assay for\n(§6) CRC cells. *p < 0.05, **p < 0.01, ***p < 0.001 versus respective vehicle controls.\n(§7) (also on this page, place not known: ca ncer fo r 02468 Cell viability (%) 0 1 Cell viability (%) *** *** ***)"}, "HCT116 p53+/+ cells": {"tested_on": "HCT116 p53+/+ cells", "experiment": "MTT cell viability assay", "type": "cell-based, human", "settings": "5 days", "protocol": "as §1, §2, §3, §4, §5, §6, §7"}, "FLT4 [2]": {"biological_target": "T3, FLT4 (Homo sapiens, UniProt P35916)", "T3 construct": "purchased Eurofins Pharma Discovery (KinaseProfiler); IC50 values by Reaction Biology Corp", "T3 sequence (P35916 25-1363)": "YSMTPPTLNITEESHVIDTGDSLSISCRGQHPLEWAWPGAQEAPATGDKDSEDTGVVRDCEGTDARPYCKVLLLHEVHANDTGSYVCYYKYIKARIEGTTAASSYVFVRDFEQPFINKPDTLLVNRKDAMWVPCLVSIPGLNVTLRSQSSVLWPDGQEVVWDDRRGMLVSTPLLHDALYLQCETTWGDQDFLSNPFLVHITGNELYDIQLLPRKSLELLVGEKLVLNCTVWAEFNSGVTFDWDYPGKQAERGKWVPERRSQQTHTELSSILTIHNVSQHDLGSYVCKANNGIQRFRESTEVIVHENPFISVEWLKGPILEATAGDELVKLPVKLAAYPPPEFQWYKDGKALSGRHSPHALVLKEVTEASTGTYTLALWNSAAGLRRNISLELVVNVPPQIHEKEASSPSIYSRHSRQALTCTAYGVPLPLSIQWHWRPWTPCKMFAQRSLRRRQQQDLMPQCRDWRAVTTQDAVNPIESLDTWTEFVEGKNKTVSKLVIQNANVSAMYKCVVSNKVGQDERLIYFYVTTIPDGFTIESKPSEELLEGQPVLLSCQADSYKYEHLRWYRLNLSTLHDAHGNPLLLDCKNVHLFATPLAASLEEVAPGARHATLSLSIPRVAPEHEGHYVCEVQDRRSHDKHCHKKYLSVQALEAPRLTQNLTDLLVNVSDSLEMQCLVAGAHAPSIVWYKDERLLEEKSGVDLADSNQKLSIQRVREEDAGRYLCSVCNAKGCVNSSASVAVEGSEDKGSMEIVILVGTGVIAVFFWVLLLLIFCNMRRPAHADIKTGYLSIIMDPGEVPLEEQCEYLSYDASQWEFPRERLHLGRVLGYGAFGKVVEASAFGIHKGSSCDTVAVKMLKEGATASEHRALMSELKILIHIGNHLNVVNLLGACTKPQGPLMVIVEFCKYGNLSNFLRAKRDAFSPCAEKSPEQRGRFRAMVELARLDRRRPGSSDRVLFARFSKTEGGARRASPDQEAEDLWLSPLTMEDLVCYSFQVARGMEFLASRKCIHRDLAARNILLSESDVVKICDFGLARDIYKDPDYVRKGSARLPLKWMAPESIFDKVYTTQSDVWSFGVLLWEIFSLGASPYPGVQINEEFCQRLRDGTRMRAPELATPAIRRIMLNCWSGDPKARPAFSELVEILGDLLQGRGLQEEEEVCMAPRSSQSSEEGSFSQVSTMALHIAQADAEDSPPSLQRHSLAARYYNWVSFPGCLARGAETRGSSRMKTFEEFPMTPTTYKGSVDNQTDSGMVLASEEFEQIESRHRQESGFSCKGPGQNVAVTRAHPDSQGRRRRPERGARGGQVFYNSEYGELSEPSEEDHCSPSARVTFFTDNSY", "experiment": "In vitro kinase assay, IC50 (Reaction Biology Corp.)", "type": "biochemical"}, "FLT3(D835Y)": {"biological_target": "FLT3(D835Y) (Homo sapiens, UniProt P36888, D835Y)", "experiment": "In vitro kinase assay, IC50 (Reaction Biology Corp.)", "type": "biochemical", "parameters": "purchased Reaction Biology Corp. (Malvern, PA, USA)"}, "CHK2": {"biological_target": "T4, CHK2 (Homo sapiens, UniProt O96017)", "T4 construct": "purchased Eurofins Pharma Discovery (KinaseProfiler); IC50 values by Reaction Biology Corp", "experiment": "Kinase profiling at 10 μM (Eurofins)", "type": "biochemical", "settings": "read-out: Inhibitory activity"}, "WEE1": {"biological_target": "T5, WEE1 (Homo sapiens, UniProt P30291)", "T5 construct": "purchased Eurofins Pharma Discovery (KinaseProfiler); IC50 values by Reaction Biology Corp", "experiment": "Kinase profiling at 10 μM (Eurofins)", "type": "biochemical", "settings": "read-out: Inhibitory activity"}, "Abl": {"biological_target": "T6, Abl (Homo sapiens, UniProt P00519)", "T6 construct": "purchased Eurofins Pharma Discovery (KinaseProfiler); IC50 values by Reaction Biology Corp", "experiment": "Kinase profiling at 10 μM (Eurofins)", "type": "biochemical", "settings": "read-out: Inhibitory activity"}, "PDGFRα(D842V)": {"biological_target": "T7, PDGFRα(D842V) (Homo sapiens, UniProt P16234, D842V)", "T7 construct": "purchased Eurofins Pharma Discovery (KinaseProfiler); IC50 values by Reaction Biology Corp", "T7 sequence (P16234 24-1089 D842V)": "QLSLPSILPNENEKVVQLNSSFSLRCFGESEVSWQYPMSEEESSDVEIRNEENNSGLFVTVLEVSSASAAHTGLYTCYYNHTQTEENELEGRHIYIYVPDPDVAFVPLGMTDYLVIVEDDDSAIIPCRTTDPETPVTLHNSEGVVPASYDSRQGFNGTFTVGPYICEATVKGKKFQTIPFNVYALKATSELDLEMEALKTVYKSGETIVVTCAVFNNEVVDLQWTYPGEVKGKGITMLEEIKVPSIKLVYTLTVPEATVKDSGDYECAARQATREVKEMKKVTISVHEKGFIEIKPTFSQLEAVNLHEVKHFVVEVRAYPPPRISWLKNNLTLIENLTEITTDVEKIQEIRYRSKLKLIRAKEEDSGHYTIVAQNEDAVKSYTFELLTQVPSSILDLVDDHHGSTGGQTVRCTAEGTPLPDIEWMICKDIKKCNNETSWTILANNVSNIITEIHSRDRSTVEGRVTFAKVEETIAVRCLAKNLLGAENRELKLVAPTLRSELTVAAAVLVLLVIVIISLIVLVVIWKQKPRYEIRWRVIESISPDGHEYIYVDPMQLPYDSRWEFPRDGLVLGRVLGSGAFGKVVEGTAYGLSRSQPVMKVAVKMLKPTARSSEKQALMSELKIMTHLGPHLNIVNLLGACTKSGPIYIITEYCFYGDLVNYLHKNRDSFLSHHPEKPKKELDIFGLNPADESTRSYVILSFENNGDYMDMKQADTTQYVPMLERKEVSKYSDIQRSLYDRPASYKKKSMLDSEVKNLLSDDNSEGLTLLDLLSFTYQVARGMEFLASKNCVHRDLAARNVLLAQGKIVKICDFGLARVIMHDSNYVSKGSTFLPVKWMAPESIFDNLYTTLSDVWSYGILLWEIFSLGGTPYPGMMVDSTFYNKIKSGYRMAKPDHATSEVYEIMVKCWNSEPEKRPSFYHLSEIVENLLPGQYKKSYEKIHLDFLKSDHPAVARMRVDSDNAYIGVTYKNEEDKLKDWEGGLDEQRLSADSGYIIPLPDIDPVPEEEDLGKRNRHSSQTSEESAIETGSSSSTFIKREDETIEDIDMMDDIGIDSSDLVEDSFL", "experiment": "Kinase profiling at 10 μM (Eurofins)", "type": "biochemical", "settings": "read-out: Inhibitory activity"}, "Aurora-A": {"biological_target": "T8, Aurora-A (Homo sapiens, UniProt O14965)", "T8 construct": "purchased Eurofins Pharma Discovery (KinaseProfiler); IC50 values by Reaction Biology Corp", "experiment": "Kinase profiling at 10 μM (Eurofins)", "type": "biochemical", "settings": "read-out: Inhibitory activity"}, "IGF-1R": {"biological_target": "T9, IGF-1R (Homo sapiens, UniProt P08069)", "T9 construct": "purchased Eurofins Pharma Discovery (KinaseProfiler); IC50 values by Reaction Biology Corp", "experiment": "Kinase profiling at 10 μM (Eurofins)", "type": "biochemical", "settings": "read-out: Inhibitory activity"}, "MV4-11 cells": {"tested_on": "MV4-11 cells", "experiment": "CCK-8 cell viability assay", "type": "cell-based, human", "settings": "CCK-8, 5 days", "protocol": "(§8) Supplementary Figure 1. AIU2001 inhibited the proliferation of various cancer cells. (A and B) Human AML cells (Molm-13 and MV4-11; A) and human colorectal cancer (CRC) cells (HCT116/p53+/+ and HCT116/p53-/-; B) were treated with AIU2001 at the indicated concentrations for 5 days and viable cells were evaluated using the CCK-8 assay for AML cells and the MTT assay for CRC cells. *p < 0.05, **p < 0.01, ***p < 0.001 versus respective vehicle controls.\n(§9) (also on this page, place not known: ca ncer fo r 02468 Cell viability (%) 0 1 Cell viability (%) *** *** ***) […]\n(§10) Cell viability. Cytotoxicity assay of AML cells was performed using cell counting kit-8 (CCD-8; Dojindo, Japan) according to the manufacturer’s procedure. Briefly, MV4-11 or Molm-13 cells were plated in 96-well plates at a density of […] or 1 × 10^3 cells/well in triplicate, treated with AIU2001 or DMSO, and then incubated for 5 days. After adding the CCK-8 solution (10 μl) to each well and incubating the plates for 3 h, absorbance at 450 nm was measured using a microplate reader"}, "Molm-13 cells": {"tested_on": "Molm-13 cells", "experiment": "CCK-8 cell viability assay", "type": "cell-based, human", "settings": "CCK-8, 5 days", "protocol": "as §8, §9, §10"}, "FLT4 [3]": {"biological_target": "T3, FLT4", "experiment": "Kinase profiling at 10 μM (Eurofins)", "type": "biochemical", "settings": "read-out: Inhibitory activity"}, "FLT3 [4]": {"biological_target": "T2, FLT3", "experiment": "Kinase profiling at 10 μM (Eurofins)", "type": "biochemical", "settings": "read-out: Inhibitory activity"}, "PDK1": {"biological_target": "T10, PDK1 (Homo sapiens, UniProt O15530)", "T10 construct": "purchased Eurofins Pharma Discovery (KinaseProfiler); IC50 values by Reaction Biology Corp", "experiment": "Kinase profiling at 10 μM (Eurofins)", "type": "biochemical", "settings": "read-out: Inhibitory activity"}, "cSRC": {"biological_target": "T11, cSRC (Homo sapiens, UniProt P12931)", "T11 construct": "purchased Eurofins Pharma Discovery (KinaseProfiler); IC50 values by Reaction Biology Corp", "experiment": "Kinase profiling at 10 μM (Eurofins)", "type": "biochemical", "settings": "read-out: Inhibitory activity"}, "c-KIT": {"biological_target": "T12, c-KIT (Homo sapiens, UniProt P10721)", "T12 construct": "purchased Eurofins Pharma Discovery (KinaseProfiler); IC50 values by Reaction Biology Corp", "T12 sequence (P10721 26-976)": "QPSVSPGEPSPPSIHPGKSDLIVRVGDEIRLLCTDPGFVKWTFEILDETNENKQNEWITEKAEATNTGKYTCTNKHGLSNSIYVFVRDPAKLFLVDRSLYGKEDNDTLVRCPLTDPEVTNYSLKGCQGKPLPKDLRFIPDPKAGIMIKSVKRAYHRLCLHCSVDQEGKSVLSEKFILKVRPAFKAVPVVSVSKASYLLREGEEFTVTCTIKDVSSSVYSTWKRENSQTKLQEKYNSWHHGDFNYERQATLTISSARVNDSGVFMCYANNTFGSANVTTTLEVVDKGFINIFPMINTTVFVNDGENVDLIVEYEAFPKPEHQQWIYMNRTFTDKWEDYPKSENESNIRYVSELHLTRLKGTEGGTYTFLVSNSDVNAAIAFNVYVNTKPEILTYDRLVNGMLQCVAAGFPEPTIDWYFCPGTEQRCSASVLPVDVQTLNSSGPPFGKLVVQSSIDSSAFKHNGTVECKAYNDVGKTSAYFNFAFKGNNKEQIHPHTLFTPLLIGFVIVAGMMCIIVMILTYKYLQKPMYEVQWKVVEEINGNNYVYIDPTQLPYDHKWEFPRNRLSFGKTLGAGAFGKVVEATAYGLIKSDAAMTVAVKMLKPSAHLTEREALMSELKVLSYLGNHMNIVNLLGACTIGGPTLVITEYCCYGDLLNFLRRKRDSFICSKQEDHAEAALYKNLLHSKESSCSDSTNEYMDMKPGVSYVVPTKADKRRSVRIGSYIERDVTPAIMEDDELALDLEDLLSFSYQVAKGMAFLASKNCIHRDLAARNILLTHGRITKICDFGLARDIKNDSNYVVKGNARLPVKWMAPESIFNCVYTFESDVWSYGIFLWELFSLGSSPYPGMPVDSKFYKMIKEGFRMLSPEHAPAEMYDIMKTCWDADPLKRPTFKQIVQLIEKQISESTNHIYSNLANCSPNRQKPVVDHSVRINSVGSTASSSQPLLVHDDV", "experiment": "In vitro kinase assay, IC50 (Reaction Biology Corp.)", "type": "biochemical"}, "H1299 cells": {"tested_on": "H1299 cells", "experiment": "Clonogenic survival assay with γ-radiation", "type": "cell-based, human", "protocol": "(§11) Cells were seeded on 60-mm culture dishes at various densities and then treated with DMSO or 2 μM AIU2001. After 2 h, the cells were treated with the indicated doses of ^137Cs γ-radiation. After 10 days, the colonies were fixed and stained with 1.5% methylene blue (Sigma Aldrich) in methanol solution. Colonies containing > 50 cells were counted. The dose enhancement ratio (DER) was calculated as the dose (Gy) of radiation that yielded a surviving fraction of 0.1 for DMSO-treated cells divided by that dose for AIU2001-treated cells. The experiment was performed in triplicate."}, "A549 cells": {"tested_on": "A549 cells", "experiment": "Clonogenic survival assay with γ-radiation", "type": "cell-based, human", "protocol": "as §11"}, "FGFR1": {"biological_target": "T13, FGFR1 (Homo sapiens, UniProt P11362)", "T13 construct": "purchased Eurofins Pharma Discovery (KinaseProfiler); IC50 values by Reaction Biology Corp", "T13 sequence (P11362 22-822)": "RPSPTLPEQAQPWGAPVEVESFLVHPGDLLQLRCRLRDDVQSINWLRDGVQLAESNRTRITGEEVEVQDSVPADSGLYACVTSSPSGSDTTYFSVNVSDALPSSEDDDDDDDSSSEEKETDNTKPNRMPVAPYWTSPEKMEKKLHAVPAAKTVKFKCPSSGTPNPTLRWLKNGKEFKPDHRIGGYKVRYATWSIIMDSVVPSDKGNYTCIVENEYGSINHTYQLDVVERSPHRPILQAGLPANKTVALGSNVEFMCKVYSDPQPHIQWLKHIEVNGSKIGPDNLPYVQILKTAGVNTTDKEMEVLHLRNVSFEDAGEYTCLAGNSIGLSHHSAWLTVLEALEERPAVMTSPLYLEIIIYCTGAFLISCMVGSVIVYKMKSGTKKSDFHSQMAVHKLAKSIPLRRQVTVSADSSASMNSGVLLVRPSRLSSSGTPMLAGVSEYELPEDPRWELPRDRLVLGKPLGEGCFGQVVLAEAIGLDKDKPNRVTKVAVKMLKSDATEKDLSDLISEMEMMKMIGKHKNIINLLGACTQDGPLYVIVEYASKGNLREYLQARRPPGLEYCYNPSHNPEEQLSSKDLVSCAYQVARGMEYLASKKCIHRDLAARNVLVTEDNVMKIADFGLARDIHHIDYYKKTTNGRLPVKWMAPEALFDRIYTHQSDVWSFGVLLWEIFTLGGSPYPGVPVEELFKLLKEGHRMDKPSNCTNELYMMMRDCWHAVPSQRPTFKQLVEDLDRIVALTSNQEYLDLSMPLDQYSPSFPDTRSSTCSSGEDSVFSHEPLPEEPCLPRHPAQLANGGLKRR", "experiment": "Kinase profiling at 10 μM (Eurofins)", "type": "biochemical", "settings": "read-out: Inhibitory activity"}}, "data": [{"smiles": "Brc1ccc(-c2cnc(Nc3cccc4ccccc34)o2)cc1", "note": "[AIU2001, 5-(4-bromophenyl)-N-(naphthalen-1-yl) oxazol-2-amine]", "values": [{"measurement": "inhibition at 10 µM", "setting": "ROCK-I", "result": 0, "unit": "%"}, {"measurement": "Growth inhibition", "setting": "H460 cells", "result": "significantly inhibited the growth"}, {"measurement": "Growth inhibition", "setting": "CCD18-Lu cells", "result": "relatively less"}, {"measurement": "Growth inhibition", "setting": "BEAS2B cells", "result": "relatively less"}, {"measurement": "IC50", "setting": "FLT3 (ITD)", "result": 63.2, "unit": "nM"}, {"measurement": "IC50", "setting": "FLT3 [1]", "result": 206, "unit": "nM"}, {"measurement": "Growth inhibition", "setting": "HCT116 p53-/- cells", "result": "inhibited the growth"}, {"measurement": "Growth inhibition", "setting": "HCT116 p53+/+ cells", "result": "inhibited the growth"}, {"measurement": "IC50", "setting": "FLT4 [2]", "result": 786, "unit": "nM"}, {"measurement": "IC50", "setting": "FLT3(D835Y)", "result": 108, "unit": "nM"}, {"measurement": "inhibition at 10 µM", "setting": "CHK2", "result": 14, "unit": "%"}, {"measurement": "inhibition at 10 µM", "setting": "WEE1", "result": 8, "unit": "%"}, {"measurement": "inhibition at 10 µM", "setting": "Abl", "result": 51, "unit": "%"}, {"measurement": "inhibition at 10 µM", "setting": "PDGFRα(D842V)", "result": 23, "unit": "%"}, {"measurement": "inhibition at 10 µM", "setting": "Aurora-A", "result": 28, "unit": "%"}, {"measurement": "inhibition at 10 µM", "setting": "IGF-1R", "result": 0, "unit": "%"}, {"measurement": "Growth inhibition", "setting": "MV4-11 cells", "result": "inhibited the growth"}, {"measurement": "Growth inhibition", "setting": "Molm-13 cells", "result": "inhibited the growth"}, {"measurement": "inhibition at 10 µM", "setting": "FLT4 [3]", "result": "≥ 75", "unit": "%"}, {"measurement": "inhibition at 10 µM", "setting": "FLT3 [4]", "result": "≥ 75", "unit": "%"}, {"measurement": "inhibition at 10 µM", "setting": "PDK1", "result": 19, "unit": "%"}, {"measurement": "inhibition at 10 µM", "setting": "cSRC", "result": 22, "unit": "%"}, {"measurement": "IC50", "setting": "c-KIT", "result": 223, "unit": "nM"}, {"measurement": "Dose enhancement ratio (DER) at surviving fraction of 0.1 over DMSO-treated cells", "setting": "H1299 cells; 2 μM, 2 h before IR, 10 days", "result": 1.15}, {"measurement": "Radiosensitivity", "setting": "H1299 cells; clonogenic survival", "result": "radiosensitized"}, {"measurement": "Dose enhancement ratio (DER) at surviving fraction of 0.1 over DMSO-treated cells", "setting": "A549 cells; 2 μM, 2 h before IR, 10 days", "result": 1.33}, {"measurement": "Radiosensitivity", "setting": "A549 cells; clonogenic survival", "result": "radiosensitized"}, {"measurement": "inhibition at 10 µM", "setting": "FGFR1", "result": 1, "unit": "%"}]}]}
